Assays:
[1] = system: MIA PaCa-2 pancreatic cancer; assay: MIA PaCa-2 pancreatic cancer xenograft; settings: 100 mg/kg ip, weekly, Day 15
[2] = system: NCI-N87 Her2+ gastric cancer; assay: NCI-N87 (Her2+) gastric cancer xenograft in athymic nude mice; type: in vivo; settings: 40 mg/kg oral, thrice weekly for three weeks, day 21
Experimental: The efficacy of Compound 1 was compared to that of SNX-5422 (Serenex, Pfizer, Inc.) on the growth of NCI-N87 (Her2+) human gastric cancer cells as a xenograft in athymic nude mice model. Animals were dosed with either 200 mg/kg of Compound 1 on days 1 through 21 or 40 mg/kg of SNX-5422 thrice weekly for three weeks. Tumor volumes and body weights were determined from Days 1 to 39.
Five million NCI-N87 cells were implanted subcutaneously in the right flank of female nude mice (Hsd:athymic nude-Foxn1^nu). When the median tumor volume was approximately 123 mm^3, mice were randomized into three cohorts of ten animals. One cohort was dosed orally with vehicle, one cohort was dosed orally with Compound 1 (200 mg/kg) formulated in vehicle, and one cohort was dosed orally with SNX-5422 (40 mg/kg) formulated in dimethylacetamide/polyethylene glycol 300. Vehicle and Compound 1 were administered on days 1-21 and SNX-5422 was administered thrice weekly on Days 1, 3, 5, 8, 10, 12, 15, 17 and 19. The mice were observed daily for mortality and signs of toxicity.
Xenografted mice bearing N-87 tumors (median volume ˜125 mm^3) were dosed orally with Compound 1 for three weeks with the dosing schedules indicated in FIG. 4.
Additionally, xenografted mice bearing N-87 tumors (median volume ˜115 mm^3) were dosed orally with Compound 1 for twenty-one days at 200 mg/kg, once daily or 100 mg/kg, twice-daily as indicated in FIG. 5. Tumor growth inhibition (TGI) was monitored up to Day 39.

[3] = system: A549 non-small cell lung cancer; assay: A549 non-small cell lung cancer xenograft; type: in vivo, mice; settings: maximum tolerated dose, oral once daily for 21 days, Day 22

Structure (SMILES): O=c1[nH]cc(F)c(=O)[nH]1 [5-Fluorouracil, reference compound]
- TGI (tumor growth inhibition) [1]: 58%

Structure (SMILES): CC1(C)CC(=O)c2c(C(F)(F)F)nn(-c3ccc(C(N)=O)c(N[C@H]4CC[C@H](OC(=O)CN)CC4)c3)c2C1 [SNX-5422, reference compound]
- decrease in median tumor volume [2]: 22%

Structure (SMILES): C#Cc1cccc(Nc2ncnc3cc(OCCOC)c(OCCOC)cc23)c1 [erlotinib]
- TGI (tumor growth inhibition) [3]: 88%

Source: US20120277257A1, “Methods of Treating Diseases, Pharmaceutical Compositions, and Pharmaceutical Dosage Forms” (MYREXIS, INC., priority 2009, published 2012)
